# Measured values reported in article PMC6006164, “Natural cyclopeptide RA-V inhibits the NF-κB signaling pathway by targeting TAK1” (Cell Death & Disease, 2018).
# Legend:
# [1] = test system: TAK1, JNK, ERK, p38, and IKKα/β phosphorylation; experiment: Western blot of TAK1 and downstream kinase phosphorylation; format: cell-based; conditions: HeLa; RA-V 12 h, 10 ng/mL TNF-α 10 min
# Method: HEK293T cells were transfected with TAK1-N or TAK1-C for 24 h. The cells lysates were incubated with CB12 or biotin and precipitated with streptavidin-coated sepharose and were analyzed by immunoblotting with Flag antibody. b The model for RA-V binding to the crystal structure of the TAK1–TAB1 fusion protein (PDB 4GS6). The blue dotted lines represent the hydrogen bonds between RA-V (green) and TAK1–TAB1. c RA-V probably binds the ATP-binding pocket of TAK1. HEK293T cells were transfected with TAK1 for 24 h, and then the cell lysates were incubated with biotin or CB12 before precipitation with streptavidin agarose. The immunoprecipitates were treated with ATP or (5Z)-7-oxozeaenol and western blotted with Flag antibody. d RA-V inhibits TAK1, JNK, ERK, p38, and IKKα/β phosphorylation. HeLa cells were incubated with various concentrations of RA-V for 12 h and then treated with 10 ng/mL TNF-α for 10 min. The cell lysates were prepared and western blotted with the indicated antibodies. Each experiment was repeated at least three times
# For western blot analysis, the samples were equally subjected to sodium dodecyl sulfate polyacrylamide gel electrophoresis (SDS-PAGE) and transferred to polyvinylidene difluoride membranes (Millipore). […] The protein bands were detected with the SuperSignal West Pico Chemiluminescent Substrate (Pierce).
# [2] = test system: NF-κB target genes, IL-8, MCP-1, and E-selectin; experiment: Quantitative RT-PCR of TNF-α-induced NF-κB target genes; format: cell-based, Homo sapiens; conditions: HEK293T or HeLa; RA-V 24 h, 10 ng/mL TNF-α 2 h; normalized to GADPH
# Method: (§1) Fig. 1 RA-V inhibits TNF-α- and LPS-induced activation of NF-κB. a Chemical structure of RA-V. b RA-V inhibited the NF-κB signaling pathway in a dose-dependent manner. HEK293T or HeLa cells were transfected with the 5 × κB-luciferase and pTK-Renilla reporters. Twenty-four hours after transfection, the cells were incubated with various concentrations of RA-V for 6 h, and then treated with 10 ng/mL TNF-α for 2 h before the luciferase activity assay and MTT assay. c RA-V reduced TNF-α-induced expression of NF-κB target genes. HEK293T or HeLa cells were treated with various concentrations of RA-V for 24 h and stimulated with 10 ng/mL TNF-α for 2 h. The expression of the NF-κB target genes, IL-8, MCP-1, and E-selectin was measured by quantitative RT-PCR and normalized to GADPH expression. d RA-V inhibited TNF-α-induced p65 phosphorylation, IκBα phosphorylation and IκBα degradation. […] The expression of IL-6 was measured. h RA-V inhibited LPS-induced p65 phosphorylation, IκBα phosphorylation. […] The protein expression was measured. i RA-V inhibited LPS-induced IL-6 production. […] The expression of IL-6 was measured.
# The total RNA was extracted from the indicated cells using TRIzol reagent (Invitrogen) according to the manufacturer’s instructions and then was reverse transcribed. The RNA concentrations were measured spectrophotometrically with a BioPhotometer (Eppendorf). […]
# RAW264.7 cells = experiment: LPS-induced NF-κB activation in RAW264.7 cells; format: cell-based; conditions: 1 μg/mL LPS 3 h, dose-dependent
# Method: as §1, with “degradation. HEK293T or HeLa cells were incubated with various concentrations of RA-V for 24 h and treated with 10 ng/mL TNF-α for 10 min. The cell lysates were prepared and subjected to western blot analysis with the indicated antibodies. e RA-V inhibited TNF-α-induced IL-8 production.” for “degradation.”
substance,measurement,setting,value
RA-V,"phosphorylation of TAK1 and of IKKα/β, JNK, ERK, and p38",[1],inhibited
same,"TNF-α-induced expression of IL-8, MCP-1, and E-selectin",[2],dose-dependently decreased
same,"LPS-induced IL-6 production, IκBα phosphorylation and p65 phosphorylation",RAW264.7 cells,inhibited
